Each structure is given as a SMILES string.

The experiment relates to normal human epidermal keratinocytes. The experiment is described as follows: Protection of keratinocytes from ultraviolet induced cell death (apoptosis). The settings on record: even at micromolar concentrations. The format is cell-based. The text has this: This effect is independent from and in addition to, the skin barrier repair and hydrating effects taurine exerts on dermal cells.

`NCCS(=O)(=O)O` [taurine, Taurine]: the “protection from ultraviolet induced cell death (apoptosis)” value is “can protect”.

Values taken from patent US20100239655A1, “TAURINE-BASED COMPOSITIONS AND THERAPEUTIC METHODS” (priority 2004, published 2010).
